Data taken from patent US5350757A, “Substituted 1,2,3,4-tetrahydroisoquinolines with angiotensin II receptor antagonist properties” (Warner-Lambert Company, priority 1993, dated 1994).

Experiments:
[1] = molecular target: T1, angiotensin type 2 (AT2) (Oryctolagus cuniculus, UniProt G1T351); experiment: AT2 binding assay (rabbit uterus binding assay); conditions: for IC50: rabbit uterus binding assay
T1 construct: from tissue; host or cells: rabbit uterus
T1 sequence (G1T351 1-363): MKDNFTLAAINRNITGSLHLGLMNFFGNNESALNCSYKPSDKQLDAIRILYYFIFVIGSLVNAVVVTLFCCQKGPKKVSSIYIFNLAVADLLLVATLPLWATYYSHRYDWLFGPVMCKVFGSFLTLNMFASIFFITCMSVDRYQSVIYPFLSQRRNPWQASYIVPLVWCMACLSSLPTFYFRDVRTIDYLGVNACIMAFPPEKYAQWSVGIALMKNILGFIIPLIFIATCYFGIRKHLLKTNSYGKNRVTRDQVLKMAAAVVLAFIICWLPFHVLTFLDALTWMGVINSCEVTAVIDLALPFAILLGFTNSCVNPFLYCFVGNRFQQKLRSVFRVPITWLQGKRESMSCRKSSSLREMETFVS
Description: (§1) A typical compound active in a rabbit uterus binding assay for detecting angiotensin type 2 (AT2) antagonists is compound 6 below. AT2 Binding Assay is a modification of the procedure by D. T. Dudley, et al, Mol. Pharmacol. 38:370 (1990) .

[2] = test system: AT-1 receptors; conditions: cited from earlier work
[3] = test system: AT1; experiment: AT1 binding assay; conditions: at 10^-5 M concentration
[4] = test system: angiotensin type 2 (AT2); experiment: AT2 binding assay (rabbit uterus binding assay); conditions: AT2 versus AT1
Description: as §1

Row | Compound | IC50 [1] [nM] | other results
1 | COc1ccc(NC(=O)N2Cc3ccc(OC)c(OCc4ccccc4)c3CC2C(=O)O)cc1 (racemic) [Example 27, (RS)-1,2,3,4-Tetrahydro-6-methoxy-2-[[(4-methoxyphenyl)amino]carbonyl]-5-(phenylmethoxy)-3-isoguinolinecarboxylic acid] | 1110 | –
2 | COc1ccc2c(c1OCc1ccccc1)CC(C(=O)O)N(C(=O)C(c1ccc(Cl)cc1)c1ccc(Cl)cc1)C2 (racemic) [Example 23, (RS)-2-[Bis(4-chlorophenyl)acetyl]-1,2,3,4-tetrahydro-6-methoxy-5-(phenylmethoxy)-3-isoquinolinecarboxylic acid] | 24.2 | –
3 | COc1ccc2c(c1OCc1ccc(C(=O)O)cc1)CC(C(=O)O)N(C(=O)C(c1ccccc1)c1ccccc1)C2 (racemic) [Example 33, (RS)-5-(4-Carboxyphenylmethoxy)-2-(diphenylacetyl)-1,2,3,4-tetrahydro-6-methoxy-3-isoquinolinecarboxylic acid] | 752 | –
4 | COc1ccc2c(c1OCc1ccccc1)CC(C(=O)O)N(C(=O)Cc1c(Cl)cccc1Cl)C2 (racemic) [Example 25, (RS)-2-[(2,6-Dichlorophenyl)acetyl]-1,2,3,4-tetrahydro-6-methoxy-5-(phenylmethoxy)-3-isoquinolinecarboxylic acid] | 117 | –
5 | COc1cc2c(cc1OCc1ccccc1)CC(C(=O)O)N(C(=O)C(c1ccccc1)c1ccccc1)C2 (racemic) [Example 21, (RS)-2-(Diphenylacetyl)-1,2,3,4-tetrahydro-7-methoxy-6-(phenylmethoxy) -3-isoquinolinecarboxylic acid] | 58.5 | –
6 | COc1ccc2c(c1OCCc1ccccc1)CC(C(=O)O)N(C(=O)C(c1ccccc1)c1ccccc1)C2 (racemic) [Example 22, (RS)-2-(Diphenylacetyl)-1,2,3,4-tetrahydro-6-methoxy-5-(2-phenylethoxy)-3-isoquinolinecarboxylic acid] | 8.9 | –
7 | COc1ccc2c(c1OCc1ccccc1)CC(C(=O)O)N(C(=O)N(C)c1ccccc1)C2 (racemic) [Example 26] | 8.4 | –
8 | CCOC(=O)C1Cc2c(ccc(OC)c2OCc2ccccc2)CN1C(=O)C(c1ccccc1)c1ccccc1 (racemic) [Example 30, (RS)-2-(Diphenylacetyl)-1,2,3,4-tetrahydro-6-methoxy-5-phenylmethoxy-3-isoquinolinecarboxylic acid, ethyl ester] | 151 | –
9 | COc1ccc(COc2c(OC)ccc3c2CC(C(=O)O)N(C(=O)C(c2ccccc2)c2ccccc2)C3)cc1C (racemic) [Example 35] | 1.9 | –
10 | CCCCc1nc(Cl)c(CO)n1Cc1ccc(-c2ccccc2-c2nn[nH]n2)cc1 [Dup753] | – | selective antagonism of AT-1 receptors [2]: selectively antagonized
11 | COc1ccc2c(c1OCc1ccccc1)CC(C(=O)O)N(C(=O)C(c1ccccc1)c1ccccc1)C2 (racemic) [Example 20, (RS)-2-(Diphenylacetyl)-1,2,3,4-tetrahydro-6-methoxy-5-(phenylmethoxy)-3-isoquinolinecarboxylic acid] | 2.8 | AT1 binding assay activity [3]: inactive; selectivity for the AT2 site [4]: highly selective for the AT2 site; binding affinity for the AT2 receptor site, in words [1]: high binding affinity
12 | COc1ccc2c(c1OCc1ccccc1)CC(C(=O)O)N(C(=O)C(c1ccccc1)C1CCCC1)C2 (racemic) [Example 24, (RS)-2-(Cyclopentylphenylacetyl)-1,2,3,4-tetrahydro-6-methoxy-5-(phenylmethoxy)-3-isoquinolinecarboxylic acid] | 1.6 | –
